Reference: patent US20120321729A1, “NUTRITIONAL FORMULA FOR MANAGING CHRONIC OBSTRUCTIVE PULMONARY DISEASE (COPD) AND LUNG HEALTH” (priority 2011, published 2012)
Read-outs that look alike come from different tables or passages of the source.

How the values were obtained:
[1] = tested on: Nrf2 (nuclear factor erythroid 2-related factor 2); assay: Alteration of regulatory elements of oxidative stress and inflammation (Nrf2); conditions: "We and others have observed"
[2] = tested on: primary rat tracheal epithelial cells; conditions: a chemical found in tobacco smoke, previously disclosed; cited from earlier work
[3] = tested on: lipopolysaccharide-induced injury (lungs); conditions: rats; cited from earlier work
[4] = tested on: lipopolysaccharide-induced injury (lungs); conditions: mice; cited from earlier work
[5] = tested on: Nrf2 (nuclear factor erythroid 2-related factor 2); conditions: "It has been shown" (related art); cited from earlier work
heme oxygenase 1 = conditions: Zhang H S, Wang S Q Biochem Pharmacol. 2007; cited from earlier work
[6] = tested on: inducible nitric oxide synthase; conditions: Zhang H S, Wang S Q Biochem Pharmacol. 2007; cited from earlier work

Cc1coc2c1C(=O)C(=O)c1c-2ccc2c1CCCC2(C)C [Tanshinone IIA]
effect on regulatory elements involved in oxidative stress and inflammation such as Nrf2 [1]: alters regulatory elements | protection of primary rat tracheal epithelial cells from benzopyrene [2]: protects | protection of lungs from lipopolysaccharide-induced injury [3]: protects lungs | protection of lungs from lipopolysaccharide-induced injury [4]: protects lungs | effect on regulatory elements involved in oxidative stress and inflammation such as Nrf2 [5]: alters regulatory elements | induction of heme oxygenase 1 (heme oxygenase 1): inducer | suppression of the induction of inducible nitric oxide synthase [6]: suppressor of the induction
